Columns and labels:
yeast HSP90 = yeast HSP90 (Saccharomyces cerevisiae, UniProt P02829); assay: Hsp90 ATPase assay (malachite green); format: biochemical
Experimental: (§1) For present invention, the ATPase activity of yeast HSP90 was measured using malachite green assay. Formula I compounds for primary antitumoral activity were treated in human colorectal cancer cells (HCT116) showing increased expression levels of HSP90 client protein and cotoxicity IC50 values was measured as a result.

[1] = system: human colorectal cancer cells (HCT116); assay: Growth inhibition assay (cytotoxicity) in HCT116; format: cell-based; conditions: HCT-116
Experimental: as §1

Chain of yeast HSP90 (P02829 whole entry): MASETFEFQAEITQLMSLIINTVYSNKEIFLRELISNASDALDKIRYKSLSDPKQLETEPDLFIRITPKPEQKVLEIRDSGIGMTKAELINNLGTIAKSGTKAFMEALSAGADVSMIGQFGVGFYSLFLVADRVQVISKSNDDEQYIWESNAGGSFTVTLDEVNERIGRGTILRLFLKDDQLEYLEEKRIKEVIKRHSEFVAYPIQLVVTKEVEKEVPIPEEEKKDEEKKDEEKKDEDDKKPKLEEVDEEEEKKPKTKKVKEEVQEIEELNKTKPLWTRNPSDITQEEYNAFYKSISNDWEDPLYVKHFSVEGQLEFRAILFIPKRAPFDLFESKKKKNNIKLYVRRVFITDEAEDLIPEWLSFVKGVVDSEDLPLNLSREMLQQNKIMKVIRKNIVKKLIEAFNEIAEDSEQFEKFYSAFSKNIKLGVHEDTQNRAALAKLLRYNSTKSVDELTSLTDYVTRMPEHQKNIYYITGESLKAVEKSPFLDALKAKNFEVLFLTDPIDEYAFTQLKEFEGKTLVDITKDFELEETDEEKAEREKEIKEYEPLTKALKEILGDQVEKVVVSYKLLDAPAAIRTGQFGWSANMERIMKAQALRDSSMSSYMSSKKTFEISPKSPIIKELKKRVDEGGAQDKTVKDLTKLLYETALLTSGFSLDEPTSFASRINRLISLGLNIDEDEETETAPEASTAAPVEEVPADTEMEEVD

| Structure (SMILES) | IC50 (yeast HSP90) [nM] | IC50 [1] [nM] |
| --- | --- | --- |
| CCNC(=O)c1noc(-c2cc(C(C)C)c(O)cc2O)c1-c1cc(CN2CCOCC2)no1 [Compound I-18, 5-(2,4-Dihydroxy-5-isopropylphenyl)-N-ethyl-3′-(morpholinomethyl)-4,5′-biisoxazole-3-carboxamide] | 500 to 1000 | < 500 |
| CCNC(=O)c1noc(-c2cc(C(C)C)c(O)cc2O)c1-c1cc(C(OC)OC)no1 [Compound I-51, 5-(2,4-Dihydroxy-5-isopropylphenyl)-3′-(dimethoxymethyl)-N-ethyl-4,5′-biisoxazole-3-carboxamide] | < 500 | < 500 |
| CCNC(=O)c1noc(-c2cc(Cl)c(O)cc2O)c1-c1cc(CO)no1 [Compound I-24, 5-(5-Chloro-2,4-dihydroxyphenyl)-N-ethyl-3′-(hydroxymethyl)-4,5′-biisoxazole-3-carboxamide] | 500 to 1000 | > 1000 |
| CCNC(=O)c1noc(-c2cc(C(C)C)c(O)cc2O)c1-c1noc(NC)n1 [Compound I-79, 5-(2,4-Dihydroxy-5-isopropylphenyl)-N-ethyl-4-(5-(methylamino)-1,2,4-oxadiazol-3-yl)isoxazole-3-carboxamide] | 500 to 1000 | < 500 |
| CCNC(=O)c1noc(-c2cc(C(C)C)c(O)cc2O)c1-c1noc(-c2ccco2)n1 [Compound I-63, 5-(2,4-Dihydroxy-5-isopropylphenyl)-N-ethyl-4-(5-(furan-2-yl)-1,2,4-oxadiazol-3-yl)isoxazole-3-carboxamide] | < 500 | < 500 |
| CCNC(=O)c1noc(-c2cc(C(C)C)c(O)cc2O)c1-c1noc(COC)n1 [Compound I-75, 5-(2,4-Dihydroxy-5-isopropylphenyl)-N-ethyl-4-(5-(methoxymethyl)-1,2,4-oxadiazol-3-yl)isoxazole-3-carboxamide] | < 500 | < 500 |
| CCNC(=O)c1noc(-c2cc(C(C)C)c(O)cc2O)c1-c1cc[nH]n1 [Compound I-96, 5-(2,4-Dihydroxy-5-isopropylphenyl)-N-ethyl-4-(1H-pyrazol-3-yl)isoxazole-3-carboxamide] | 500 to 1000 | < 500 |
| CCNC(=O)c1noc(-c2cc(C(C)C)c(O)cc2O)c1-c1cc(C(=O)N2CCSCC2)no1 [Compound I-50, 5-(2,4-Dihydroxy-5-isopropylphenyl)-N-ethyl-3′-(thiomorpholine-4-carbonyl)-4,5′-biisoxazole-3-carboxamide] | 500 to 1000 | < 500 |
| CC(=O)NCc1noc(-c2cc(C(C)C)c(O)cc2O)c1-c1ccsc1 [Compound I-6, N-((5-(2,4-Dihydroxy-5-isopropylphenyl)-4-(thiophen-3-yl)isoxazol-3-yl)methyl)acetamide] | > 1000 | < 500 |
| CCNC(=O)c1noc(-c2cc(C(C)C)c(O)cc2O)c1-c1cc(CNC(=O)CC)no1 [Compound I-34, 5-(2,4-Dihydroxy-5-isopropylphenyl)-N-ethyl-3′-(propionamidomethyl)-4,5′-biisoxazole-3-carboxamide] | < 500 | < 500 |
| CCNC(=O)c1noc(-c2cc(C(C)C)c(O)cc2O)c1-c1noc(C2CCCCC2)n1 [Compound I-89, 4-(5-Cyclohexyl-1,2,4-oxadiazol-3-yl)-5-(2,4-dihydroxy-5-isopropylphenyl)-N-ethylisoxazole-3-carboxamide] | 500 to 1000 | < 500 |
| CCNC(=O)c1noc(-c2cc(C(C)C)c(O)cc2O)c1-c1noc(CO)n1 [Compound I-81, 5-(2,4-Dihydroxy-5-isopropylphenyl)-N-ethyl-4-(5-(hydroxymethyl)-1,2,4-oxadiazol-3-yl)isoxazole-3-carboxamide] | 500 to 1000 | < 500 |
| CCNC(=O)c1noc(-c2cc(C(C)C)c(O)cc2O)c1-c1noc(C2CCCC2)n1 [Compound I-88, 4-(5-Cyclopentyl-1,2,4-oxadiazol-3-yl)-5-(2,4-dihydroxy-5-isopropylphenyl)-N-ethylisoxazole-3-carboxamide] | < 500 | < 500 |
| CCNC(=O)c1noc(-c2cc(C(C)C)c(O)cc2O)c1-c1noc(C(O)CCl)n1 (stereo not drawn) [Compound I-91, 4-(5-(2-Chloro-1-hydroxyethyl)-1,2,4-oxadiazol-3-yl)-5-(2,4-dihydroxy-5-isopropylphenyl)-N-ethylisoxazole-3-carboxamide] | 500 to 1000 | < 500 |
| CCNC(=O)c1noc(-c2cc(C(C)C)c(O)cc2O)c1-c1ccn(C)n1 [Compound I-97, 5-(2,4-Dihydroxy-5-isopropylphenyl)-N-ethyl-4-(1-methyl-1H-pyrazol-3-yl)isoxazole-3-carboxamide] | 500 to 1000 | < 500 |
| CCCn1ccc(-c2c(C(=O)NCC)noc2-c2cc(C(C)C)c(O)cc2O)n1 [Compound I-101, 5-(2,4-Dihydroxy-5-isopropylphenyl)-N-ethyl-4-(1-propyl-1H-pyrazol-3-yl)isoxazole-3-carboxamide] | 500 to 1000 | < 500 |
| CCNC(=O)c1noc(-c2cc(C(C)C)c(O)cc2O)c1-c1cc(C(N)=O)no1 [Compound I-21, 5-(2,4-Dihydroxy-5-isopropylphenyl)-N^3-ethyl-4,5′-biisoxazole-3,3′-dicarboxamide] | 500 to 1000 | < 500 |

| Structure (SMILES) | IC50 (yeast HSP90) [nM] | IC50 [1] [nM] |
| --- | --- | --- |
| CCNC(=O)c1noc(-c2cc(C(C)C)c(O)cc2O)c1-c1cc(C)no1 [Compound I-37, 5-(2,4-Dihydroxy-5-isopropylphenyl)-N-ethyl-3′-methyl-4,5′-biisoxazole-3-carboxamide] | < 500 | < 500 |
| CCNC(=O)c1noc(-c2cc(C(C)C)c(O)cc2O)c1-c1cnn(CC)c1 [Compound I-104, 5-(2,4-Dihydroxy-5-isopropylphenyl)-N-ethyl-4-(1-ethyl-1H-pyrazol-4-yl)isoxazole-3-carboxamide] | 500 to 1000 | < 500 |
| CCNC(=O)c1noc(-c2cc(C(C)C)c(O)cc2O)c1-c1cc(COCC(N)=O)no1 [Compound I-36, 3′-((2-Amino-2-oxoethoxy)methyl)-5-(2,4-dihydroxy-5-isopropylphenyl)-N-ethyl-4,5′-biisoxazole-3-carboxamide] | < 500 | < 500 |
| CCNC(=O)c1noc(-c2cc(C(C)C)c(O)cc2O)c1-c1cc(CN2CCCC2)no1 [Compound I-39, 5-(2,4-Dihydroxy-5-isopropylphenyl)-N-ethyl-3′-(pyrrolidin-1-ylmethyl)-4,5′-biisoxazole-3-carboxamide] | 500 to 1000 | < 500 |
| CC(C)c1cc(-c2onc(Cn3ccnn3)c2-c2ccsc2)c(O)cc1O [Compound I-5, 4-(3-((1H-1,2,3-Triazol-1-yl)methyl)-4-(thiophen-3-yl)isoxazol-5-yl)-6-isopro pylbenzene-1,3-diol] | > 1000 | < 500 |
| CCNC(=O)c1noc(-c2cc(C(C)C)c(O)cc2O)c1-c1cc(CNC(C)=O)no1 [Compound I-31, 3′-(Acetamidomethyl)-5-(2,4-dihydroxy-5-isopropylphenyl)-N-ethyl-4,5′-biisoxazole-3-carboxamide] | 500 to 1000 | < 500 |
| CCNC(=O)c1noc(-c2cc(C(C)C)c(O)cc2O)c1-c1noc(N)n1 [Compound I-78, 4-(5-Amino-1,2,4-oxadiazol-3-yl)-5-(2,4-dihydroxy-5-isopropylphenyl)-N-ethylisoxazole-3-carboxamide] | < 500 | < 500 |
| CCNC(=O)c1noc(-c2cc(C(C)C)c(O)cc2O)c1-c1noc(N2CCOCC2)n1 [Compound I-73, 5-(2,4-Dihydroxy-5-isopropylphenyl)-N-ethyl-4-(5-morpholino-1,2,4-oxadiazol-3-yl)isoxazole-3-carboxamide] | 500 to 1000 | < 500 |
| CCNC(=O)c1noc(-c2cc(C(C)C)c(O)cc2O)c1-c1ccn(CC)n1 [Compound I-99, 5-(2,4-Dihydroxy-5-isopropylphenyl)-N-ethyl-4-(1-ethyl-1H-pyrazol-3-yl)isoxazole-3-carboxamide] | 500 to 1000 | < 500 |
| CCNC(=O)c1noc(-c2cc(C(C)C)c(O)cc2O)c1-c1cc(CNC)no1 [Compound I-42, 5-(2,4-Dihydroxy-5-isopropylphenyl)-N-ethyl-3′-((methylamino)methyl)-4,5′-biisoxazole-3-carboxamide] | < 500 | < 500 |
| CCNC(=O)c1noc(-c2cc(C(C)C)c(O)cc2O)c1C1CC(CO)=NO1 (stereo not drawn) [Compound I-9, 5-(2,4-Dihydroxy-5-isopropylphenyl)-N-ethyl-4-(3-(hydroxymethyl)-4,5-dihydroisoxazol-5-yl)isoxazole-3-carboxamide] | 500 to 1000 | < 500 |
| CCNC(=O)c1noc(-c2cc(C(C)C)c(O)cc2O)c1-c1noc(N2CCCC2)n1 [Compound I-69, 5-(2,4-Dihydroxy-5-isopropylphenyl)-N-ethyl-4-(5-(pyrrolidin-1-yl)-1,2,4-oxadiazol-3-yl)isoxazole-3-carboxamide] | 500 to 1000 | < 500 |
| CCNC(=O)c1noc(-c2cc(C(C)C)c(O)cc2O)c1-c1cc(-c2ccsc2)no1 [Compound I-46, 5-(2,4-Dihydroxy-5-isopropylphenyl)-N-ethyl-3′-(thiophen-3-yl)-4,5′-biisoxazole-3-carboxamide] | 500 to 1000 | < 500 |
| CCNC(=O)c1noc(-c2cc(C(C)C)c(O)cc2O)c1-c1cc(CN2CCSCC2)no1 [Compound I-47, 5-(2,4-Dihydroxy-5-isopropylphenyl)-N-ethyl-3′-(thiomorpholinomethyl)-4,5′-biisoxazole-3-carboxamide] | < 500 | < 500 |
| CCNC(=O)c1noc(-c2cc(C(C)C)c(O)cc2O)c1-c1nnn[nH]1 [Compound I-10, 5-(2,4-Dihydroxy-5-isopropylphenyl)-N-ethyl-4-(1H-tetrazol-5-yl)isoxazole-3-carboxamide] | 500 to 1000 | > 1000 |
| CCNC(=O)c1cc(-c2c(C(=O)NCC)noc2-c2cc(C(C)C)c(O)cc2O)on1 [Compound I-16, 5-(2,4-Dihydroxy-5-isopropylphenyl)-N^3,N^3′-diethyl-4,5′-biisoxazole-3,3′-dicarboxamide] | < 500 | < 500 |
